Results as given in patent US9447038B2 (SANOFI, priority 2012, dated 2016).
Structures can show the parent of a compound that is named as a salt.

Target: human CXCR3-A receptor (Homo sapiens (Human), UniProt P49682)
Experiment: 125I-CXCL10 competition radioligand binding assay;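 also: One-hour incubation of membranes with tracer, bound radioligand separated by glass fibre filtration, IC50 derived from four-parameter nonlinear fit of competition curves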
Conditions: displacement of 125I-CXCL10 from membranes of CHO cells expressing human recombinant CXCR3-A

Sequence of human CXCR3-A receptor (P49682 whole entry): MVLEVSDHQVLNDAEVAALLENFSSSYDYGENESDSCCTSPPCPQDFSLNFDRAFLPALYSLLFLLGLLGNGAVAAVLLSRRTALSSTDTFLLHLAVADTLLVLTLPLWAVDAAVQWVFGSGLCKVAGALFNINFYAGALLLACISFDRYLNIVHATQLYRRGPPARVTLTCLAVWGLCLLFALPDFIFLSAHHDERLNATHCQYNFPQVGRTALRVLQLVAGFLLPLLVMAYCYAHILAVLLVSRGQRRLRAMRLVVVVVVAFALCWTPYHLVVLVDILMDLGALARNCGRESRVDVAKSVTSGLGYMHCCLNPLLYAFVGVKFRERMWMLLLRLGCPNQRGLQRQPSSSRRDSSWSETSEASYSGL

| Compound | IC50 |
| --- | --- |
| CCCN(Cc1ccc(OCCN2C(=O)CCC2=O)c(C)c1)C(CC(=O)O)c1ccc(C)cc1 (centres unmarked) [Example 178, 3-({4-[2-(2,5-Dioxo-pyrrolidin-1-yl)-ethoxy]-3-methyl-benzyl}-propyl-amino)-3-p-tolyl-propionic acid] | 183 nM |
| COc1cc(CN(CC2CCCC2)C(CC(=O)O)c2ccc(C)cc2)ccc1OCCN1C(=O)CCC1=O (centres unmarked) [Example 179, 3-(Cyclopentylmethyl-{4-[2-(2,5-dioxo-pyrrolidin-1-yl)-ethoxy]-3-methoxy-benzyl}-amino)-3-p-tolyl-propionic acid] | 91 nM |
| COc1cc(CN(CC2CCCC2)C(CC(=O)O)c2ccc(C(F)(F)F)cc2)ccc1OCCN1C(=O)CCC1=O (centres unmarked) [Example 180, 3-(Cyclopentylmethyl-{4-[2-(2,5-dioxo-pyrrolidin-1-yl)-ethoxy]-3-methoxy-benzyl}-amino)-3-(4-trifluoromethyl-phenyl)-propionic acid] | 198 nM |
| COc1cc(CN(CC2CCCCC2)C(CC(=O)O)c2ccc(C(F)(F)F)cc2)ccc1OCCN1C(=O)CCC1=O (centres unmarked) [Example 181, 3-(Cyclohexylmethyl-{4-[2-(2,5-dioxo-pyrrolidin-1-yl)-ethoxy]-3-methoxy-benzyl}-amino)-3-(4-trifluoromethyl-phenyl)-propionic acid] | 507 nM |
| CCN(Cc1ccc(OCCN2C(=O)CCC2=O)c(OC)c1)C(C(=O)O)c1ccc(Cl)cc1 (centres unmarked) [Example 182, (4-Chloro-phenyl)-({4-[2-(2,5-dioxo-pyrrolidin-1-yl)-ethoxy]-3-methoxy-benzyl}-ethyl-amino)-acetic acid] | 3900 nM |
| CCCCN(Cc1ccc(OCCN2C(=O)CCC2=O)c(OC)c1)C(C(=O)O)c1ccc(Cl)cc1 (centres unmarked) [Example 184] | 336 nM |
| COc1cc(CN(CC2CC2)C(c2ccc(Cl)cc2)C(C)C(=O)O)ccc1OCCN1C(=O)CCC1=O (centres unmarked) [Example 187, 3-(4-Chloro-phenyl)-3-(cyclopropylmethyl-{4-[2-(2,5-dioxo-pyrrolidin-1-yl)-ethoxy]-3-methoxy-benzyl}-amino)-2-methyl-propionic acid] | 71 nM |
| COc1cc(CN(CC2CCCC2)C(CC(=O)O)c2ccc(Cl)cc2)ccc1SCCN1C(=O)CCC1=O (centres unmarked) [Example 188, 3-(4-Chloro-phenyl)-3-(cyclopentylmethyl-{4-[2-(2,5-dioxo-pyrrolidin-1-yl)-ethylsulfanyl]-3-methoxy-benzyl}-amino)-propionic acid] | 31 nM |
| COc1cc(CN(CC2CCCC2)C(CC(=O)O)c2ccc(Cl)c(F)c2)ccc1SCCN1C(=O)CCC1=O (centres unmarked) [Example 190, 3-(4-Chloro-3-fluoro-phenyl)-3-(cyclopentylmethyl-{4-[2-(2,5-dioxo-pyrrolidin-1-yl)-ethylsulfanyl]-3-methoxy-benzyl}-amino)-propionic acid] | 62 nM |
| COc1cc(CN(CC2CC2)C(CC(=O)O)c2ccc(Cl)c(Cl)c2)ccc1SCCN1C(=O)CCC1=O (centres unmarked) [Example 191, 3-(Cyclopropylmethyl-{4-[2-(2,5-dioxo-pyrrolidin-1-yl)-ethylsulfanyl]-3-methoxy-benzyl}-amino)-3-(3,4-dichloro-phenyl)-propionic acid] | 20 nM |
| CCCN(Cc1ccc(SCCN2C(=O)CCC2=O)c(OC)c1)C(CC(=O)O)c1ccc(Cl)c(Cl)c1 (centres unmarked) [Example 192, 3-(3,4-Dichloro-phenyl)-3-({4-[2-(2,5-dioxo-pyrrolidin-1-yl)-ethylsulfanyl]-3-methoxy-benzyl}-propyl-amino)-propionic acid] | 55 nM |
| COc1cc(CN(CC(C)C)C(CC(=O)O)c2ccc(Cl)c(Cl)c2)ccc1SCCN1C(=O)CCC1=O (centres unmarked) [Example 193, 3-(3,4-Dichloro-phenyl)-3-({4-[2-(2,5-dioxo-pyrrolidin-1-yl)-ethylsulfanyl]-3-methoxy-benzyl}-isobutyl-amino)-propionic acid] | 72 nM |
| CCCN(Cc1ccc(OCCN2C(=O)CCC2=O)c(C)c1)C(c1ccc(Cl)cc1)C(C)C(=O)O (centres unmarked) [Example 194, 3-(4-Chloro-phenyl)-3-({4-[2-(2,5-dioxo-pyrrolidin-1-yl)-ethoxy]-3-methyl-benzyl}-propyl-amino)-2-methyl-propionic acid] | 272 nM |
| CCCN(Cc1ccc(OCCN2C(=O)CCC2=O)c(F)c1)C(c1ccc(Cl)cc1)C(C)C(=O)O (centres unmarked) [Example 195, 3-(4-Chloro-phenyl)-3-({4-[2-(2,5-dioxo-pyrrolidin-1-yl)-ethoxy]-3-fluoro-benzyl}-propyl-amino)-2-methyl-propionic acid] | 342 nM |
| CCCN(Cc1ccc(OCCN2C(=O)CCC2=O)c(CC)c1)C(c1ccc(Cl)cc1)C1(C(=O)O)CC1 (centres unmarked) [Example 196, 1-[(4-Chloro-phenyl)-({4-[2-(2,5-dioxo-pyrrolidin-1-yl)-ethoxy]-3-ethyl-benzyl}-propyl-amino)-methyl]-cyclopropanecarboxylic acid] | 630 nM |
| Cc1cc(CN(CC2CCCC2)[C@@H](CC(=O)O)c2ccc(Cl)cc2)ccc1OCCN1C(=O)CN(C)C1=O [Example 199, (S)-3-(4-Chloro-phenyl)-3-(cyclopentylmethyl-{3-methyl-4-[2-(3-methyl-2,5-dioxo-imidazolidin-1-yl)-ethoxy]-benzyl}-amino)-propionic acid] | 175 nM |
| Cc1cc(CN(CC2CCCC2)[C@@H](CC(=O)O)c2ccc(Cl)c(Cl)c2)ccc1OCCN1C(=O)CN(C)C1=O [Example 200, (S)-3-(Cyclopentylmethyl-{3-methyl-4-[2-(3-methyl-2,5-dioxo-imidazolidin-1-yl)-ethoxy]-benzyl}-amino)-3-(3,4-dichloro-phenyl)-propionic acid; hydrochloride] | 234 nM |
| CN1CC(=O)N(CCOc2ccc(CN(CC3CCCC3)[C@H](CC(=O)O)c3ccc(Cl)cc3)cc2Cl)C1=O [Example 201, (R)-3-({3-Chloro-4-[2-(3-methyl-2,5-dioxo-imidazolidin-1-yl)-ethoxy]-benzyl}-cyclopentylmethyl-amino)-3-(4-chloro-phenyl)-propionic acid] | 886 nM |
| CN1CC(=O)N(CCOc2ccc(CN(CC3CCCCC3)[C@H](CC(=O)O)c3ccc(Cl)cc3)cc2Cl)C1=O [Example 202, (R)-3-({3-Chloro-4-[2-(3-methyl-2,5-dioxo-imidazolidin-1-yl)-ethoxy]-benzyl}-cyclohexylmethyl-amino)-3-(4-chloro-phenyl)-propionic acid] | 810 nM |
| CCCN(Cc1ccc(OCCN2C(=O)CCC2=O)c(OC)c1)C(CC(=O)O)c1cc(C)sc1C (centres unmarked) [Example 204, 3-(2,5-Dimethyl-thiophen-3-yl)-3-({4-[2-(2,5-dioxo-pyrrolidin-1-yl)-ethoxy]-3-methoxy-benzyl}-propyl-amino)-propionic acid; hydrochloride] | 197 nM |
